Assay results from the NIST ThermoML archive (doi:10.1016/j.fluid.2008.07.003).

Conditions: Liquid

FCC(F)(F)F [1,1,1,2-tetrafluoroethane]
Conditions | vapor or sublimation pressure [kPa]
283.15 K | 416
293.15 K | 572.4
303.15 K | 771.5
313.15 K | 1017.5
323.15 K | 1318.8
333.15 K | 1681.6
343.15 K | 2114.5
353.15 K | 2629
